Test results taken from patent US20150322083A1, “(THIENO[2,3-b][1,5]BENZOXAZEPIN-4-YL)PIPERAZIN-1-YL COMPOUNDS AS SELECTIVE 5-HT2A INVERSE AGONISTS” (Eli Lilly and Company, priority 2014, published 2015).

Experiments:
Adrenergic alpha1A = Adrenergic alpha1A (Homo sapiens, UniProt P35348); test: Adrenergic alpha1A binding
Method: (§1) Curves are evaluated using a 4-parameter logistic nonlinear equation to obtain the concentration of competitor causing 50% inhibition of radioligand binding (IC50). Equilibrium dissociation constants (Ki) are calculated according to the equation Ki=IC50/(1+L/Kd), where L equals the concentration of radioligand used in the experiment and Kd equals the equilibrium dissociation constant of the radioligand for the receptor, determined from standard saturation analysis or homologous competition experiments. Reported values for Ki, where n values are indicated, are shown as geometric mean±the standard error of the mean (SEM), with the number of replicate determinations indicated by n. Geometric means are calculated by the equation GeoMean=10̂(Average(log Ki 1+log Ki 2+ . . . log Ki n)/[…]).
(§2) Further, the compounds of the invention may be tested in binding assays and functional activity assays by well known methods for other physiologically important receptors such as, but not limited to, the hERG channel, other serotonin receptors (specifically 5-HT1B receptors, lack of agonist activity at 5-HT2B receptors, 5-HT2C, 5-HT5, 5-HT6, and 5-HT7 receptors), dopaminergic receptors (specifically D1, D2, and D3), H1 receptors, GABAA receptors, adrenergic receptors and monoamine transporters.

[1] = tested on: MK-801 induced locomotor hyperactivity; test: MK-801 induced locomotor hyperactivity in mice; assay type: in vivo; conditions: for Distance traveled during habituation with vehicle or compound, Mean: 1 hr. habituation before MK-801; for Distance traveled after administration of vehicle or 0.1 mg/Kg MK-801, Mean: 2 hrs after MK-801 0.1 mg/kg SC
Excerpt: MK-801 induced locomotor hyperactivity in mice: The rodent MK-801 induced locomotor hyperactivity assay has been used as a predictor of anti-psychotic therapeutic potential (Corbett, R., Camacho, F., Woods, A. T., Kerman, L. L., Fishkin, R. J., Brooks, K., and Dunn, R. W. Antipsychotic agents antagonize non-competitive N-methyl-D-aspartate antagonist-induced behaviors. Psychopharmacology (1995) vol. 120: 67-74). Compounds of the invention may be evaluated for their ability to reduce locomotor hyperactivity elicited by the NMDA receptor antagonist MK-801. Studies are conducted in the dark. Locomotor activity is measured in clear Perspex™ boxes (40×40×30 cm) based on infrared fields (100×100 cm). Sixteen boxes are used, four on each field, each monitored using overhead infrared cameras (Sanyo VCV-3412P, TrackSys Ltd, UK). The cameras feed into a Quad Videoswitch (VQ403-C), TrackSys Ltd, UK), which in turn feeds a PC running the image analysis application Ethovision v8 (Noidus, NL).
All treatment tzroups have initial sample sizes of n=8. Mice are assigned to groups using a pseudorandomised block method where treatments are balanced across the time of day of testing and the test room used. On the test day, animals are transported to the testing room ante-chamber in their home cages and dosed with the test compound (0.3-3 mg/kg po) or vehicle before being placed individually into the test boxes for 1 hr., during which time locomotor activity is measured. Following this habituation period, animals are dosed with MK-801 (0.1 mg/kg SC) or vehicle as appropriate and then replaced into the test boxes where locomotor activity is measured for a further 2 hrs. The measurement of interest for LMA studies is the distance moved (cm). Unless stated otherwise, points on all graphs are plotted as the mean±standard errors.
Data are imported into STATISTICA (v9) for statistical analyses. A general linear model approach is used for all multivariate ANOVAs calculated for the data. Following ANOVA, planned comparisons are used to investigate significant differences from the control animals. Statistical significances are denoted by the following symbols: *p<0.05, **p<0.01. Mean values calculated in Statistica are imported into SigmaPlot (v11) to graph the data.

[2] = biological target: T1, recombinant rat 5-HT2A receptor (Rattus norvegicus, UniProt P14842); test: 5-HT2A inverse agonism, [35S]GTPγS binding to AV12 membranes (rat receptor); assay type: biochemical; conditions: n=2, read-out: EC50, inhibition of intrinsic activity of the 5-HT2A receptor
T1 construct: expressed in transfected cells; host or cells: AV12 cells, membranes
T1 sequence (P14842 whole entry): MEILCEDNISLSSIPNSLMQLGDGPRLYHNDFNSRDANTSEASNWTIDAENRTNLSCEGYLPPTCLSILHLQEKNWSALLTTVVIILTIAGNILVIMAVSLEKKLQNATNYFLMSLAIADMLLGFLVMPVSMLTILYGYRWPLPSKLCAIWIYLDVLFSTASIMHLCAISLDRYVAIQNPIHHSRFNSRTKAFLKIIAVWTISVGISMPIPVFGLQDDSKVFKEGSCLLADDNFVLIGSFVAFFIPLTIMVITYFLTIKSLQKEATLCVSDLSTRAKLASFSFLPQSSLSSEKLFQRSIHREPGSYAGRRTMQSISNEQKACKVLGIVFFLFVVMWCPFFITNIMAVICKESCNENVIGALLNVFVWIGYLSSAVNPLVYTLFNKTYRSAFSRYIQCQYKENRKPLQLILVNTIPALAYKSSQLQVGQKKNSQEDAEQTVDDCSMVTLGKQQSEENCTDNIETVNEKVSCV
Method: The inverse agonist activity of compounds of the present invention may be determined by literature recognized assay methods measuring [^35S]GTPγS binding to membranes transfected with 5-HT2A receptors in an in vitro activity assay essentially as described below.
Membranes are prepared from frozen pellets of whole AV12 cells expressing the human or rat 5-HT2A receptor. Cells are thawed on ice and homogenized in homogenization buffer (50 mM Tris-HCl, 0.5 mM EDTA, 1 tablet/100 mL of complete EDTA free protease inhibitor tablets (Roche Cat. No. 05 056 489 001), pH=7.4) with 20 strokes of a teflon-glass homogenizer attached to a motorized overhead stirrer. Centrifuge membranes at 1000 rpm (aprox. 150×g) for 15 min. at 4° C. […] The final supernatant is discarded and the pellet is resuspended in homogenization buffer and its protein content is determined by the method of Bradford using BSA as the standard. […]
Test compound is prepared from a 10 mM DMSO stock solution by serial dilution to provide a 10 point concentration response curve, with a final 1% DMSO concentration when added to the assay mixture. […] This mixture is incubated for 3 hr. with constant shaking at room temperature, centrifuged at 300 rpm for 1 min. with no brake and incubated for 3 more hr. before reading in a microplate scintillation counter.

Adrenergic alpha2A = Adrenergic alpha2A (Homo sapiens, UniProt P08913); test: Adrenergic alpha2A binding
Chain of Adrenergic alpha2A (P08913 whole entry): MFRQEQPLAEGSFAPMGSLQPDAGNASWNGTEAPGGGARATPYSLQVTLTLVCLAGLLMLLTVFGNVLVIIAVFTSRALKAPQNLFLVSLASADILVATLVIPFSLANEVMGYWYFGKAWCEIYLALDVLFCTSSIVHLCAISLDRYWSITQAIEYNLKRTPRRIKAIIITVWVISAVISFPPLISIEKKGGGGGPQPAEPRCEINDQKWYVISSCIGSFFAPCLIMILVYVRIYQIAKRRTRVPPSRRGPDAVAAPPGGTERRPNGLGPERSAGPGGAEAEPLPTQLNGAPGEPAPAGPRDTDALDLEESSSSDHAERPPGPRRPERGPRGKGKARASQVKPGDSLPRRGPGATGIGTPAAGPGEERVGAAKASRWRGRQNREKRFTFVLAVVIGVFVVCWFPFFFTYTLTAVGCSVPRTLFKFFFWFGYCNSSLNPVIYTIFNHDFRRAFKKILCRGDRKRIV
Method: as §1, §2

Chain of Adrenergic alpha1A (P35348 whole entry): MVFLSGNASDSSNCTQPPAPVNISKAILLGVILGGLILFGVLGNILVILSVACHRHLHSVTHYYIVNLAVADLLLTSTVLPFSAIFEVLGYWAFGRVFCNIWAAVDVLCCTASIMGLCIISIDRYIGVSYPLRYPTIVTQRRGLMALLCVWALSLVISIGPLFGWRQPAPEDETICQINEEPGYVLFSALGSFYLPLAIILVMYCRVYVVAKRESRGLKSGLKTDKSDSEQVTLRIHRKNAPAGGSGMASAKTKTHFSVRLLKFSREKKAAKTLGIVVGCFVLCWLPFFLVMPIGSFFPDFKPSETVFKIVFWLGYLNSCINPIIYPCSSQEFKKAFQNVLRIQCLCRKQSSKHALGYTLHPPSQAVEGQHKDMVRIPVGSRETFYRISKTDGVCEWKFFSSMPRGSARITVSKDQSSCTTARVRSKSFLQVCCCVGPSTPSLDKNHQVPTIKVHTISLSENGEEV

Structure (SMILES): Cc1ccc2c(c1)Oc1sc(SC(C)C)cc1C(N1CCN(CC(C)(C)C(=O)O)CC1)=N2 [Example 1, 3-[4-(2-isopropylsulfanyl-8-methyl-thieno[2,3-b][1,5]benzoxazepin-4-yl)piperazin-1-yl]-2,2-dimethyl-propanoic acid]
- Ki (Adrenergic alpha1A): 4.45 µM
- Distance traveled during habituation with vehicle or compound, Mean ([1]; 0.3 mg/Kg po): 9336.73 cm
- Distance traveled after administration of vehicle or 0.1 mg/Kg MK-801, Mean ([1]; 0.3 mg/Kg po): 8492.08 cm
- Distance traveled during habituation with vehicle or compound, Mean ([1]; 1.0 mg/Kg po): 8939.48 cm
- Distance traveled after administration of vehicle or 0.1 mg/Kg MK-801, Mean ([1]; 1.0 mg/Kg po): 7258.87 cm
- Distance traveled during habituation with vehicle or compound, Mean ([1]; 3.0 mg/Kg po): 7682.77 cm
- Distance traveled after administration of vehicle or 0.1 mg/Kg MK-801, Mean ([1]; 3.0 mg/Kg po): 7085.68 cm
- effect on MK-801 induced locomotor hyperactivity (in words) ([1]; 0.3-3 mg/kg po): significantly block
- EC50 [2]: 0.103 µM
- Ki (Adrenergic alpha2A): > 1.61 µM
